Measured values: the supplement of paper PMC10307832

Columns and labels:
Experiment in all cases: relative viability (nuclei count vs DMSO), 5 days (fraction); higher = more cells survive
[1] = compound: CC1=CC(=NN1)NC2=CC(=NC(=N2)/C=C/C3=CC=CC=C3)N4CCN(CC4)C + Cc1cc(Nc2cc(N3CCN(C)CC3)nc(Sc3ccc(NC(=O)C4CC4)cc3)n2)n[nH]1 [Tozasertib] (partner 0.1 µM)
Procedure, shortened: (§1)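 Relative viability is defined as nuclei in treated wells over nuclei in vehicle wells. Duplicate plates were run and medians reported. Lung cancer cell lines in 1536-well plates were dosed by pin tool one day after seeding, with one drug or with a fixed anchor-drug dose plus five library-drug doses (not always all listed) in √10 steps, and nuclei were counted after 5 days.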

[2] = compound: CC(C)C[C@H](NC(=O)[C@H](Cc1ccccc1)NC(=O)c1cnccn1)B(O)O [Bortezomib] + CC1(C)CCC(c2ccc(Cl)cc2)=C(CN2CCN(c3ccc(C(=O)NS(=O)(=O)c4ccc(N[C@H](CCN5CCOCC5)CSc5ccccc5)c(S(=O)(=O)C(F)(F)F)c4)cc3)CC2)C1 [Navitoclax] (partner 0.5 µM)
Procedure, shortened: as §1

[3] = compound: CC(C)C[C@H](NC(=O)[C@H](Cc1ccccc1)NC(=O)c1cnccn1)B(O)O [Bortezomib] + Nc1nc2[nH]cc(CCc3ccc(C(=O)N[C@@H](CCC(=O)O)C(=O)O)cc3)c2c(=O)[nH]1 [Pemetrexed] (partner 0.2 µM)
Procedure, shortened: as §1

[4] = compound: COC1=CC(c2cc3ccccc3[nH]2)=N/C1=C\c1[nH]c(C)cc1C [Obatoclax] + CCNC(=O)c1noc(-c2cc(C(C)C)c(O)cc2O)c1-c1ccc(CN2CCOCC2)cc1 [Luminespib] (partner 0.01 µM)
Procedure, shortened: as §1

Cell Line	relative viability ([1]; first compound 0.08 µM)	relative viability ([1]; first compound 0.253 µM)	relative viability ([1]; first compound 0.8 µM)	relative viability ([1]; first compound 2.53 µM)	relative viability ([1]; first compound 8 µM)	relative viability ([2]; first compound 0.0002 µM)	relative viability ([2]; first compound 0.000632 µM)	relative viability ([2]; first compound 0.002 µM)	relative viability ([2]; first compound 0.006325 µM)	relative viability ([2]; first compound 0.02 µM)	relative viability ([3]; first compound 0.0002 µM)	relative viability ([3]; first compound 0.000632 µM)	relative viability ([3]; first compound 0.002 µM)	relative viability ([3]; first compound 0.006325 µM)	relative viability ([3]; first compound 0.02 µM)	relative viability ([4]; first compound 0.01 µM)	relative viability ([4]; first compound 0.03162 µM)	relative viability ([4]; first compound 0.1 µM)	relative viability ([4]; first compound 0.3162 µM)	relative viability ([4]; first compound 1 µM)
HCC-78	0.365	0.427	0.352	0.304	0.253	0.766	0.794	0.467	0.16	0.178	0.786	0.89	0.932	0.887	0.902					
HCC-366	0.0833	0.0907	0.0487	0.032	0.0245	0.945	1.03	1.04	0.949	0.0281	0.149	0.173	0.207	0.149	0.0543					
HCC-827	0.404	0.375	0.422	0.355	0.236	1.05	1.03	0.768	0.979	0.0957	0.265	0.254	0.219	0.234	0.247	0.676	0.575	0.6	0.706	0.76
HOP-62	0.354	0.366	0.377	0.261	0.18	1.17	1.05	0.747	0.243	0.074	0.257	0.321	0.445	0.223	0.0603	0.854	0.815	0.846	0.88	0.926
IA-LM						1.07	0.865	0.994	0.0167	0.0073										
LC-2-ad	0.45	0.409	0.358	0.224	0.204	0.422		0.543	0.0995	0.0978	0.255	0.271	0.255	0.252	0.185	0.984	0.914	0.773	0.733	0.361
LCLC-97TM1	0.235	0.132	0.23	0.145	0.126	0.586	0.451	0.186	0.222	0.0968	0.189	0.17	0.16	0.166	0.0769	0.734	0.563	0.788	0.761	0.532
LCLC-103H	0.451	0.484	0.389	0.232	0.191						0.46	0.483	0.47	0.559	0.317	0.948	0.875	1.02	0.911	0.969
LK-2	0.187	0.153	0.165	0.171	0.171	0.828	0.878	0.238	0.172	0.174	0.285	0.324	0.221	0.365	0.28	0.183	0.23	0.231	0.189	0.164
LOU-NH91	0.713	0.719	0.707	0.482	0.308	0.697	0.543	0.254	0.187	0.201	0.396	0.446	0.361	0.281	0.284	0.351	0.367	0.345	0.265	0.294
NCI-H358	0.103	0.103	0.0892	0.089	0.0711						0.163	0.182	0.171	0.104	0.0993	0.395	0.245	0.449	0.351	0.161
NCI-H522	0.559	0.579	0.684	0.462	0.399						1.29	1.04	1.08	0.442	0.35	1.17	1.1	1.07		1.01
NCI-H661	0.321	0.344	0.339	0.382	0.394						0.887	0.89	0.88	0.594	0.23	0.917	0.937	0.921	0.808	0.601
NCI-H727	0.568	0.533	0.578	0.407	0.267	0.455	0.511	0.541	0.167	0.103						0.278	0.344	0.347	0.316	0.342
NCI-H1299						0.981	0.988	1.01	0.397	0.142										
NCI-H1563											0.885	0.848	0.744	0.809	0.575	0.519	0.528	0.529	0.503	0.517
NCI-H1623	0.4	0.441	0.414	0.397	0.342											0.561	0.437	0.662	0.571	0.547
NCI-H1648	0.42	0.543	0.643	0.46	0.215						0.62	0.592	0.753	0.468	0.334					
NCI-H1703						1.21	1.01	0.188	0.139	0.085										
NCI-H1792						0.622	0.582	0.638	0.633	0.582	0.656	0.837	0.827	0.4	0.057	0.419	0.474		0.376	0.394
NCI-H2342	0.527	0.503	0.438	0.376	0.324						0.801	0.783	0.739	0.752	0.712	0.592	0.87	0.777	0.644	0.716
SW 900	0.594	0.667	0.559	0.326	0.174						0.476	0.485	0.224	0.169	0.152	0.164	0.153	0.179	0.131	0.148
